Earlier results as cited in patent US20240423897A1, “LONGEVITY SERUM” (Wellbeam Consumer Health Intermediate, LLC, priority 2023, published 2024).

Tested on: skin
Conditions: topical application

## C=C[C@@](C)(/C=C/c1ccc(O)cc1)CCC=C(C)C [bakuchiol]
  effect on lines and wrinkles, pigmentation, elasticity, firmness, and photo-damage: significant improvement
  irritating effect on the skin: no irritating effect
